In patent US20240299448A1, “METHODS FOR PREVENTING AND TREATING CHRONIC PAIN” (priority 2023, published 2024):

How the values were obtained:
Assay type in all cases: in vivo, mouse
[1] = system: mice with hind paw injection of complete Freund's adjuvant (CFA); assay: CFA inflammatory pain, von Frey mechanical paw-withdrawal threshold; conditions: for allodynia during the administration period after CFA / duration of the overall allodynia episode produced by CFA: drug daily Day 0 to Day 6, diclofenac 25, morphine 5, gabapentin 100 mg/kg/day i.p., lidocaine 2% 20 μl s.c. hind paw, vs saline; for development of allodynia after CFA in dexamethasone-treated mice: hind paw injection on Day 3 and Day 5, ipsilateral to CFA, with dexamethasone; for duration of CFA allodynia in the absence of dexamethasone / CFA-induced mechanical allodynia in the absence of dexamethasone: hind paw injection on day 3 and day 5, no dexamethasone; for CFA-induced mechanical allodynia in the absence of dexamethasone: day 6 or any other time point, vs vehicle
Experimental: Mice: CD-1 male and female mice aged 6-12 weeks (ICR:Crl, Charles River, St. Constant, QC) were used in these experiments. All mice were housed in standard shoebox cages with 2-4 (same-sex) per cage in a light (14:10 h, lights on at 07:00 h) and temperature-controlled (20±1° C.) environment with ad libidum access to food (Harlan Teklad 8604) and tap water. Mice were acclimated to the vivarium for 7 days post-arrival and before testing. Each mouse was used in a single drug experiment. Equal numbers of male and female mice were included in each cohort.
Drugs: Dexamethasone (PromoCell, Heidelberg, Germany) was administered via daily subcutaneous injections at a dosage of 0.5 mg/kg/day. Diclofenac, morphine, and gabapentin were administered via intraperitoneal (i.p.) injection at a dose of 25 mg/kg/day, 5 mg/kg/day, and 100 mg/kg/day, respectively. Lidocaine was administered via subcutaneous (s.c.) injection of 20 μl of 2% lidocaine into the plantar hind paw. All drugs other than dexamethasone were purchased from Sigma-Aldrich (St. Louis, MO, USA). Anti-Ly6G (BioX Cell [InVivoPlus anti-mouse Ly6G/Ly6C (Gr-1)]) and its isotype control (BioX Cell [InVivoPlus rat IgG2b isotype control, anti-keyhole limpet hemocyanin]) were injected at a dose of 125 μg/day. S100A8 and S100A9 were injected (10 μl) into the plantar surface of the inflamed (see below) hind paw at a dose of 1 μg/day.
Neutrophils: Neutrophils were isolated using the EasySep Mouse Neutrophil Enrichment kit (Stem Cell Technologies, Vancouver, Canada) as per manufacturer's instructions. Briefly, blood was collected by cardiac puncture in a 21-gauge needle coated with 10% EDTA and pooled from 2-3 mice in PBS/2 mM EDTA. Red blood cells were lysed after incubation in 0.83% NH4Cl for 10 min at 4° C., with the reaction stopped by adding PBS+10% FBS. Cells were centrifuged at 300 g for 5 min and resuspended in PBS+10% FBS. Cells were then incubated with rat serum and enrichment cocktail for 15 min at 4° C. and centrifuged at 300 g for 10 min. Cells were then resuspended in biotin selection cocktail for 15 min at 4° C., followed by magnetic beads for an additional 10 min, and placed into the separation magnet for 3 min. Non adherent cells were removed, and adherent cells washed off of the walls of the tube and resuspended in PBS for injection. Cells (5×10^6, in 10 μl) were injected into the plantar surface of the inflamed hind paw (see below) of mice within 30 min of isolation.
In most experiments, complete Freud's adjuvant (50% CFA, 20 μl volume) was injected into the plantar surface of the mouse's left hind paw as a model of inflammatory pain.
Before and after all injuries, mechanical paw-withdrawal threshold was measured with von Frey filaments using the up-down staircase method of Dixon (Chaplan et al., 1994), as previously described (Mogil et al., 2006). In every experiment, a baseline threshold determination was made on Day 1. Drugs or cells were administered daily from Day 0 to Day 6 (dexamethasone, diclofenac, gabapentin, lidocaine), on Day 3 and Day 5 (S100A8, S100A9, and neutrophils), or every other day from Day 0 to Day 20 (anti-Ly6G). von Frey testing on Day 6 occurred 1 hour after the drug injection on that day. Testing continued until both vehicle and drug groups had returned to their baseline statistically (with the exception of CFA+diclofenac), even though not all individual mice had necessarily recovered. Thus, in an attempt to minimize the duration that mice remained in pain, the length of experiments were different depending on the assay used and the purpose of the experiment, from 40 days post drug to 120 days post-drug.
Data analysis: Time course data of von Frey thresholds are shown graphically. To quantify the acute effects of drugs on mechanical thresholds during drug exposure (on Day 4-6 after CCI or CFA), the percentage of maximum possible allodynia was quantified as: % allodynia=[(baseline threshold−post-drug threshold)/baseline threshold]×100. […]

[2] = system: mice with chronic constriction injury (CCI) of the sciatic nerve; assay: Chronic constriction injury (CCI) neuropathic pain, von Frey mechanical paw-withdrawal threshold; conditions: drug daily Day 0 to Day 6, vs saline
Experimental: Mice: CD-1 male and female mice aged 6-12 weeks (ICR:Crl, Charles River, St. Constant, QC) were used in these experiments. All mice were housed in standard shoebox cages with 2-4 (same-sex) per cage in a light (14:10 h, lights on at 07:00 h) and temperature-controlled (20±1° C.) environment with ad libidum access to food (Harlan Teklad 8604) and tap water. Mice were acclimated to the vivarium for 7 days post-arrival and before testing. Each mouse was used in a single drug experiment. Equal numbers of male and female mice were included in each cohort. Drugs: Dexamethasone (PromoCell, Heidelberg, Germany) was administered via daily subcutaneous injections at a dosage of 0.5 mg/kg/day. […] Before and after all injuries, mechanical paw-withdrawal threshold was measured with von Frey filaments using the up-down staircase method of Dixon (Chaplan et al., 1994), as previously described (Mogil et al., 2006). […] To quantify the acute effects of drugs on mechanical thresholds during drug exposure (on Day 4-6 after CCI or CFA), the percentage of maximum possible allodynia was quantified as: % allodynia=[(baseline threshold−post-drug threshold)/baseline threshold]×100. […] To quantify the duration of the entire CCI- or CFA-induced allodynic episode, the day-by-day mechanical thresholds of each subject was considered. […]

[3] = system: CD-1 mice with plantar incision in the hind paw; assay: Plantar incision postoperative pain, von Frey mechanical sensitivity
Experimental: CD-1 mice were housed in conventional shoebox cages with 3-4 mice per cage, in temperature-controlled environment (20±1° C.), on a 12:12 h light/dark cycle, with ad libitum access to filtered water and chow (Envigo Teklad 2920x, irradiated). All mice underwent plantar incision in the right hind paw. Mice were anesthetized with 5% isoflurane at 2 L/min into a sealed induction chamber then maintained with 2.5% isoflurane at 500 mL/min through a nose cone. A 5-mm longitudinal incision was created, the flexor digitorum brevis muscle was elevated, and then a longitudinal incision was made through it. Two skin sutures closed the wound, and Polysporin antibiotic was applied. The mice were subcutaneously injected with either dexamethasone (DEXA; 0.5 mg/kg/day) or saline (PBS) once per day from the day before surgery to day 6 after surgery. Also, mice were administered 100 ug/kg/day (p.o.) of beraprost sodium, a PTGIR agonist, or saline from day 5 to 8 after plantar incision surgery. Mechanical sensitivity tests were performed using von Frey filaments (using the up-down method of Dixon) before and after the surgery on days 1, 7, 9, 14, 21 and 35. Mice were individually acclimated for at least 1 hour in transparent Plexiglas enclosures (5 cm×8.5 cm by 6 cm) before withdrawal thresholds were measured.

[4] = DEXA 0.5 mg/kg/day s.c. plus beraprost sodium 100 ug/kg/day p.o. day 5 to 8

CN1CC[C@]23c4c5ccc(O)c4O[C@H]2[C@@H](O)C=C[C@H]3[C@H]1C5 [morphine]
allodynia during the administration period after CFA [1]: reduced allodynia | duration of the overall allodynia episode produced by CFA [1]: without affecting the overall duration

CCN(CC)CC(=O)Nc1c(C)cccc1C [lidocaine, Lidocaine]
allodynia during the administration period after CFA [1]: reduced allodynia | duration of the overall allodynia episode produced by CFA [1]: without affecting the overall duration

C[C@@H]1C[C@H]2[C@@H]3CCC4=CC(=O)C=C[C@]4(C)[C@@]3(F)[C@@H](O)C[C@]2(C)[C@@]1(O)C(=O)CO [dexamethasone, Dexamethasone]
hind paw allodynia at the end of the treatment period after CCI ([2]; day 6): no effect

NCC1(CC(=O)O)CCCCC1 [gabapentin]
allodynia during the administration period after CFA [1]: reduced allodynia | duration of the overall allodynia episode produced by CFA [1]: without affecting the overall duration

CC#CCC(C)[C@H](O)/C=C/[C@@H]1[C@H]2c3cccc(CCCC(=O)O)c3O[C@H]2C[C@H]1O (mixture of isomers) [beraprost, beraprost sodium]
long-lasting DEXA-induced hyperalgesia after plantar incision [3, 4]: prevented long-lasting DEXA-induced hyperalgesia | time to recovery after plantar incision [3, 4]: recovered after one week | duration of hypersensitivity after plantar incision ([3]; DEXA 0.5 mg/kg/day s.c., no beraprost): up to one month

O=C(O)Cc1ccccc1Nc1c(Cl)cccc1Cl [diclofenac, Diclofenac]
recovery to baseline / duration of CCI-induced allodynia [2]: prolong the duration | allodynia during the administration period after CFA [1]: reduced allodynia | duration of the overall allodynia episode produced by CFA [1]: significantly prolonged the duration

B1: S100A8: neutrophil-released alarmin protein, injected into the hind paw at 1 μg/day (protein, UniProt P27005 2-89, looked up)
Protein S100-A8: PSELEKALSNLIDVYHNYSNIQGNHHALYKNDFKKMVTTECPQFVQNINIENLFRELDINSDNAINFEEFLAMVIKVGVASHKDSHKE
development of allodynia after CFA in dexamethasone-treated mice [1]: prevented the development of allodynia entirely | duration of CFA allodynia in the absence of dexamethasone [1]: neither neutrophils nor S100A8/A9 significantly affected the duration | CFA-induced mechanical allodynia in the absence of dexamethasone [1]: No effect

B2: S100A9: neutrophil-released alarmin protein, injected into the hind paw at 1 μg/day (protein, UniProt P31725 2-113, looked up)
Protein S100-A9: ANKAPSQMERSITTIIDTFHQYSRKEGHPDTLSKKEFRQMVEAQLATFMKKEKRNEALINDIMEDLDTNQDNQLSFEECMMLMAKLIFACHEKLHENNPRGHGHSHGKGCGK
development of allodynia after CFA in dexamethasone-treated mice [1]: prevented the development of allodynia entirely | duration of CFA allodynia in the absence of dexamethasone [1]: neither neutrophils nor S100A8/A9 significantly affected the duration | CFA-induced mechanical allodynia in the absence of dexamethasone [1]: No effect
